This note sets out measurements from ChEMBL document CHEMBL1201862, “PubChem BioAssay data set” (2004).

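Method: 48-hour compound exposure of cells in 96-well plates, five concentrations, linear interpolation of endpoints. GI50 is the concentration that inhibits growth by half.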 Activity calls are given as the source filed them. Cut-off read from the data, not from the text of the source: active = GI50 up to about 1.1 µM and inactive = higher.

Test systems include BT-549; EKVX; HL-60; HOP-62; HT-29; KM12; MDA-MB-435; Malme-3M; NCI-H460; OVCAR-8; RPMI-8226; RXF 393; SF-268; SF-539; SK-MEL-28; SK-MEL-2; SNB-19; SNB-75; SW-620; T47D.
Holding throughout (assay): growth of human tumour cells (NCI), 48 h

On to `COc1ccc(/C=C/C(=O)Oc2ccc(/C=C3\CCCCC3=O)cc2)cc1`, for which the GI50 was 72.3 µM (inactive) in the assay on BT-549; > 100 µM (inactive) with EKVX; 12.6 µM (inactive) in the assay on HL-60; 23.1 µM (inactive) with HOP-62; 6.28 µM (inactive) in the assay with HT-29; 56.1 µM (inactive) in the assay with KM12. Moreover, the GI50 was > 44.6 µM (inactive) in the assay on MDA-MB-435; > 79.1 µM (inactive) with Malme-3M; > 100 µM (inactive) with NCI-H460; > 75.9 µM (inactive) with OVCAR-8; 3.61 µM (inactive) in the assay on RPMI-8226; > 100 µM (inactive) in the assay on RXF 393. For the same molecule, the GI50 with SF-268 was 8 µM (inactive); in the assay with SF-539, > 100 µM (inactive); in the assay on SK-MEL-28 it was > 100 µM (inactive); in the assay on SK-MEL-2 it was > 100 µM (inactive); with SNB-19 it was > 66.1 µM (inactive); in the assay with SNB-75 it was > 88.3 µM (inactive). Further, the GI50 in the assay with SW-620 was > 93.1 µM (inactive); in the assay on T47D, > 100 µM (inactive).
On to `COC(=O)C(CCCCN)NC(=O)C(CCCCN)NC(C)=O.Cc1ccc(C(=O)Nc2ccc(S(=O)(=O)O)c3cc(S(=O)(=O)O)cc(S(=O)(=O)O)c23)cc1NC(=O)c1cccc(NC(=O)Nc2cccc(C(=O)Nc3cc(C(=O)Nc4ccc(S(=O)(=O)O)c5cc(S(=O)(=O)O)cc(S(=O)(=O)O)c45)ccc3C)c2)c1`, for which the GI50 with BT-549, with EKVX, in the assay with HL-60, in the assay on HT-29, in the assay with KM12 and in the assay on MDA-MB-435 was > 50 µM (inactive) throughout. For the same molecule, the GI50 in the assay on Malme-3M, with NCI-H460, with OVCAR-8, with RPMI-8226, in the assay with RXF 393 and in the assay on SF-268 was > 50 µM (inactive) in each case. The GI50 is > 50 µM (inactive) in the assay with SF-539; > 50 µM (inactive) in the assay on SK-MEL-28; > 50 µM (inactive) in the assay on SK-MEL-2; > 50 µM (inactive) in the assay on SNB-19; 7.59 µM (inactive) with SNB-75; > 50 µM (inactive) with SW-620. For the same molecule, the GI50 with T47D is > 50 µM (inactive).
As to `N#Cc1c(-c2ccc(Cl)cc2)cc(-c2ccc(Nc3ccnc4cc(Cl)ccc34)cc2)nc1N`, the GI50 with BT-549, in the assay with EKVX, in the assay with HL-60, with HOP-62, in the assay on KM12 and in the assay on MDA-MB-435 was > 100 µM (inactive) throughout. The GI50 is > 100 µM (inactive) in the assay on Malme-3M; > 100 µM (inactive) in the assay on NCI-H460; 40.1 µM (inactive) with OVCAR-8; > 100 µM (inactive) in the assay with RPMI-8226; > 100 µM (inactive) with RXF 393; > 100 µM (inactive) in the assay with SF-268. For the same molecule, the GI50 was 87.7 µM (inactive) in the assay on SF-539; > 100 µM (inactive) in the assay with SK-MEL-28; > 100 µM (inactive) in the assay on SK-MEL-2; 28.8 µM (inactive) in the assay on SNB-19; > 100 µM (inactive) in the assay with SNB-75; > 100 µM (inactive) with SW-620. Besides, in the assay with T47D, the GI50 is > 100 µM (inactive).
On to `COc1ccc(NC2CC(C)N(C(=O)c3ccccc3)O2)cc1` (centres undefined), for which the GI50 in the assay on BT-549 is 8.79 µM (inactive); with EKVX, > 10 µM (inactive); in the assay on HL-60 it was 9.91 µM (inactive); with HOP-62, > 10 µM (inactive); with HT-29, > 10 µM (inactive); with MDA-MB-435, > 10 µM (inactive). Further, the GI50 with Malme-3M, in the assay on NCI-H460, with OVCAR-8, with RPMI-8226, with RXF 393 and in the assay on SF-268 was > 10 µM (inactive) each time. In addition, the GI50 in the assay on SF-539, in the assay on SK-MEL-28, in the assay with SK-MEL-2, with SNB-19, in the assay on SNB-75 and in the assay on SW-620 was > 10 µM (inactive) in each case. For the same molecule, the GI50 with T47D was > 10 µM (inactive).
Turning to `O=[N+]([O-])c1cccc2nc3ccccc3c(NCCO)c12`, the GI50 is 0.00514 µM (active) in the assay with BT-549; 0.00111 µM (active) in the assay on EKVX; 0.00325 µM (active) in the assay with HL-60; 0.000539 µM (active) with HOP-62; 0.000108 µM (active) in the assay on HT-29; 0.00366 µM (active) in the assay on KM12. For the same molecule, the GI50 in the assay with MDA-MB-435 is 0.00179 µM (active); in the assay with Malme-3M, 0.00331 µM (active); in the assay with NCI-H460, 0.000767 µM (active); in the assay with RPMI-8226, 0.000682 µM (active); in the assay on RXF 393, 0.00169 µM (active); with SF-268 it was 0.00326 µM (active). In addition, the GI50 in the assay with SF-539 was 0.00262 µM (active); with SK-MEL-28, 0.00217 µM (active); in the assay on SK-MEL-2, 0.00502 µM (active); in the assay with SNB-19 it was 0.00977 µM (active); in the assay with SNB-75, 0.00164 µM (active); with SW-620, 0.00118 µM (active). In the assay with T47D, the GI50 was 0.000611 µM (active).
In the case of `CC(NC(=O)c1ccccc1)NC(=O)C(C)C(=O)Nc1ccccc1` (centres undefined), the GI50 in the assay on BT-549, in the assay with EKVX, with HL-60, in the assay with HT-29, with KM12 and in the assay with MDA-MB-435 was > 100 µM (inactive) throughout. In addition, the GI50 with Malme-3M is > 100 µM (inactive); with NCI-H460 it was > 100 µM (inactive); in the assay with OVCAR-8 it was 94.6 µM (inactive); in the assay with RPMI-8226 it was > 100 µM (inactive); in the assay on RXF 393 it was 89.1 µM (inactive); in the assay on SF-268, 62.2 µM (inactive). Besides, the GI50 is > 100 µM (inactive) in the assay with SF-539; > 100 µM (inactive) with SK-MEL-2; 27.4 µM (inactive) in the assay on SNB-19; 33.3 µM (inactive) in the assay on SNB-75; > 100 µM (inactive) with SW-620; > 100 µM (inactive) with T47D.
Take `CCNCC(=O)O[C@]1(CC)C(=O)OCc2c1cc1n(c2=O)Cc2cc3ccccc3nc2-1`: the GI50 with BT-549 is 1.05 µM (active); in the assay with EKVX, 2.44 µM (inactive); in the assay with HL-60 it was 0.056 µM (active); in the assay with HOP-62 it was 0.0275 µM (active); in the assay with HT-29, 0.889 µM (active); in the assay with KM12 it was 0.778 µM (active). The GI50 is 1.36 µM (inactive) with MDA-MB-435; 1.49 µM (inactive) with Malme-3M; 0.0277 µM (active) with NCI-H460; 0.27 µM (active) in the assay on OVCAR-8; 0.237 µM (active) in the assay with RPMI-8226; 0.264 µM (active) in the assay with RXF 393. In addition, the GI50 was 0.0767 µM (active) in the assay on SF-268; 0.0466 µM (active) in the assay with SF-539; 3.56 µM (inactive) in the assay with SK-MEL-28; 2.77 µM (inactive) with SK-MEL-2; 0.108 µM (active) in the assay with SNB-19; 0.284 µM (active) in the assay with SNB-75. Further, the figures for the GI50 in the assay on SW-620 and in the assay on T47D were 0.434 µM (active) and 0.203 µM (active), respectively.
For `COC(=O)/C=C1\CCCN1CCc1cc2c(cc1CC#N)OCO2`, the GI50 is 52.6 µM (inactive) in the assay with BT-549; 58.9 µM (inactive) in the assay on EKVX; 40.7 µM (inactive) in the assay with HL-60; 52.4 µM (inactive) in the assay on HOP-62; 32.2 µM (inactive) in the assay on HT-29; 30.7 µM (inactive) in the assay on KM12. In addition, the GI50 in the assay with MDA-MB-435 is 17.3 µM (inactive); in the assay on Malme-3M, > 100 µM (inactive); in the assay with NCI-H460, 36 µM (inactive); in the assay with OVCAR-8 it was > 100 µM (inactive); in the assay with RPMI-8226, 37 µM (inactive); in the assay with RXF 393, 31.7 µM (inactive). The GI50 in the assay on SF-268 is > 100 µM (inactive); in the assay on SF-539 it was 46.8 µM (inactive); with SK-MEL-28 it was 84.1 µM (inactive); in the assay on SK-MEL-2, 38.4 µM (inactive); with SNB-19 it was 60 µM (inactive); with SNB-75, 25.1 µM (inactive). Further, the GI50 was 49.7 µM (inactive) in the assay with SW-620 and 38.7 µM (inactive) in the assay on T47D.
Turning to `Cc1ccc(/N=N/c2c(C)nn(C(=O)CC(=O)Nc3ccc(Cl)cc3)c2C)cc1C`, the GI50 is > 100 µM (inactive) with BT-549; 28.2 µM (inactive) in the assay on EKVX; 24.4 µM (inactive) in the assay with HL-60; 34 µM (inactive) with HOP-62; > 100 µM (inactive) with HT-29; > 100 µM (inactive) in the assay on KM12. In addition, the GI50 in the assay on MDA-MB-435 is > 100 µM (inactive); with Malme-3M it was 85.5 µM (inactive); in the assay with NCI-H460 it was > 100 µM (inactive); in the assay on OVCAR-8 it was 32.9 µM (inactive); in the assay on RPMI-8226 it was > 100 µM (inactive); in the assay with RXF 393, 20.7 µM (inactive). Moreover, the GI50 in the assay with SF-268 was 37.2 µM (inactive); in the assay on SF-539 it was 26 µM (inactive); in the assay on SK-MEL-28, > 100 µM (inactive); in the assay on SK-MEL-2 it was 77.8 µM (inactive); in the assay with SNB-19, 15.5 µM (inactive); in the assay with SNB-75, 21 µM (inactive). Also, the GI50 in the assay on SW-620 and with T47D was > 100 µM (inactive) throughout.
`CCCc1nc(Cl)nc(Cl)c1Cl`: the GI50 is 0.0227 µM (active) in the assay with BT-549; 1.03 µM (active) in the assay on EKVX; 0.189 µM (active) in the assay on HL-60; 0.908 µM (active) in the assay with HOP-62; 0.269 µM (active) with HT-29; 0.543 µM (active) with KM12. For the same molecule, the GI50 with MDA-MB-435 is 0.422 µM (active); in the assay on Malme-3M, 0.453 µM (active); in the assay with NCI-H460, 0.505 µM (active); with OVCAR-8, 0.456 µM (active); with RPMI-8226 it was 0.258 µM (active); with RXF 393, 0.256 µM (active). Further, the GI50 with SF-268 was 1.85 µM (inactive); in the assay on SF-539, 1.52 µM (inactive); in the assay with SK-MEL-28 it was 0.472 µM (active); in the assay with SK-MEL-2, 0.291 µM (active); in the assay with SNB-19, 1.16 µM (inactive); in the assay with SNB-75 it was 1.22 µM (inactive). Also, the GI50 in the assay on SW-620 was 0.0675 µM (active); with T47D it was 0.857 µM (active).
